Columns and labels:
[1] = target: Acetylcholinesterase (Electrophorus electricus, UniProt O42275); test: Inhibition of electric eel AChE by Ellman's method; settings: read-out: IC50
[2] = Antioxidant activity of compound assessed as trolox equivalent of ORAC radical scavenging activity by ORAC-FL assay; type: functional
[3] = target: Amyloid-beta precursor protein (Homo sapiens) (UniProt P05067); test: Inhibition of self-induced amyloid beta (1 to 42) (unknown origin) aggregation by Thioflavin T based fluorometric assay relative to control; design: concentration or dose not given beside the values; settings: concentration not given here
[4] = system: Butyrylcholinesterase (Rattus norvegicus); test: Inhibition of rat serum BuChE at 10 uM by Ellman's method relative to control

Chain of Acetylcholinesterase (O42275 whole entry): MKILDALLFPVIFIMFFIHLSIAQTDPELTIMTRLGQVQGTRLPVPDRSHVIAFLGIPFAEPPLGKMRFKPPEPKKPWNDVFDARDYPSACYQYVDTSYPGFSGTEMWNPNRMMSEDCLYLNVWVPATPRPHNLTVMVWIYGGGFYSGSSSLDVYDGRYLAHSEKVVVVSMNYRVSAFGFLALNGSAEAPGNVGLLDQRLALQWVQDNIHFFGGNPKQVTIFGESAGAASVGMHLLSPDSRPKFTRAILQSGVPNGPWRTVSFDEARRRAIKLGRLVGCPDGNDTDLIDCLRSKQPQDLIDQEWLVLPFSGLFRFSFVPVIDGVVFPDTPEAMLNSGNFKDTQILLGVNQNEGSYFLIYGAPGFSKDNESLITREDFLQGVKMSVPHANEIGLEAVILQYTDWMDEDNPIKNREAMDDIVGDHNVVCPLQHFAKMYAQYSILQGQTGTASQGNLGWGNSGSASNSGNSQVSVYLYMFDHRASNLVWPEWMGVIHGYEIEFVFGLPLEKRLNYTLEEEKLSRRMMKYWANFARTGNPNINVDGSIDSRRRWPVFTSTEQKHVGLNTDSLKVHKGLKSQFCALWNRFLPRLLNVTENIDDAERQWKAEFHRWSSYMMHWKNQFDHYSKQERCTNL
Chain of Amyloid-beta precursor protein (Homo sapiens) (P05067 whole entry): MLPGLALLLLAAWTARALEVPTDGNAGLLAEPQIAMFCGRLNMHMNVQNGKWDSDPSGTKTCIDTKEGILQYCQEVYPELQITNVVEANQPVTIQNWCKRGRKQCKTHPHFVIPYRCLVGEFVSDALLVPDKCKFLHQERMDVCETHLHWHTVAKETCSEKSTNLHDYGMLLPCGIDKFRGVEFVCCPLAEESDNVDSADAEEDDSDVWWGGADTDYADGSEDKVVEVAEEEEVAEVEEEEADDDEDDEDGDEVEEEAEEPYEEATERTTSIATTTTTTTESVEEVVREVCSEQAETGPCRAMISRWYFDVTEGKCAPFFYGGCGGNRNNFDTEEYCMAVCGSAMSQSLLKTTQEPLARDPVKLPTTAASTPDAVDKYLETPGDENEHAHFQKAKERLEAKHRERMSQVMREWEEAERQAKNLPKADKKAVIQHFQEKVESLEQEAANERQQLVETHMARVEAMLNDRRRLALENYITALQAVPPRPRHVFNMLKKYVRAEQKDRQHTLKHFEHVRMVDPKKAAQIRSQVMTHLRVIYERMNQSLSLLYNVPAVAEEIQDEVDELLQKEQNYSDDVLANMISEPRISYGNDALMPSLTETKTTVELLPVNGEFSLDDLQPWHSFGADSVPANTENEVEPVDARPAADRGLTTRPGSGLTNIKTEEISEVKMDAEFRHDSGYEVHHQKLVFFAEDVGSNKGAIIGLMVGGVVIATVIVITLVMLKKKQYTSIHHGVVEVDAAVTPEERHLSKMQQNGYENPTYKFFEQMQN

| Structure (SMILES) | IC50 [1] | Activity [2] | inhibition [3] | inhibition [4] |
| --- | --- | --- | --- | --- |
| CCN(CCCCCCn1nc(-c2cc(NC(C)=O)ccc2O)ccc1=O)Cc1cccc(F)c1 | 69 nM | 2.1 | 38.8% | 17.7% |
| CCN(CCCCCCn1nc(-c2ccccc2O)ccc1=O)Cc1ccccc1Cl | 2310 nM | 1.72 | – | 19.6% |
| CCN(CCCCCCn1nc(-c2cc(Cl)ccc2O)ccc1=O)Cc1ccccc1OC | 9250 nM | 0.96 | – | 24.3% |
| CCN(CCCCCCOc1ccc(-c2ccccc2O)nn1)Cc1ccc(F)cc1 | 49000 nM | 0.61 | – | < 5% |
| CCN(CCCCCCn1nc(-c2cc([N+](=O)[O-])ccc2O)ccc1=O)Cc1cccc(F)c1 | 1000 nM | 0.29 | – | 33.3% |
| CCN(CCCCCCn1nc(-c2cc(C)ccc2O)ccc1=O)Cc1ccccc1OC | 1650 nM | 1.38 | – | 38.9% |
| CCN(CCCCCCn1nc(-c2ccccc2O)ccc1=O)Cc1ccc(N(C)C)cc1 | 9210 nM | 3.63 | 51.9% | < 5% |
| O=c1ccc(-c2ccccc2O)n[nH]1 | – | 2.15 | – | < 5% |
| CCN(CCCCCCn1nc(-c2ccc(F)cc2O)ccc1=O)Cc1ccccc1N(C)C | 1180 nM | 1.09 | – | 27.3% |
| CCN(CCCCCCn1nc(-c2cc(OC)ccc2O)ccc1=O)Cc1cccc(F)c1 | 2300 nM | 1.95 | – | 17.4% |
| CCN(CCCCCCn1nc(-c2cc([N+](=O)[O-])ccc2O)ccc1=O)Cc1ccccc1OC | 1160 nM | 0.27 | – | 31.8% |
| CCN(CCCCCCn1nc(-c2cc(Cl)ccc2O)ccc1=O)Cc1cccc(F)c1 | 1430 nM | 0.84 | – | 15.8% |
| O=c1ccc(-c2ccccc2O)nn1CCCCCCN1CCCC1 | 1600 nM | 2.98 | – | 15.7% |
| CN(CCCCCCn1nc(-c2ccccc2O)ccc1=O)Cc1ccccc1 | 930 nM | 2.78 | – | 28.6% |
| CCN(CCCCCCn1nc(-c2cc(Cl)ccc2O)ccc1=O)Cc1ccccc1N(C)C | 740 nM | 1.09 | – | 27.3% |
| O=c1ccc(-c2ccccc2O)nn1CCCCCCN1CCc2ccccc2C1 | 2580 nM | 2.58 | – | 21.7% |
| CCN(CCCCCCn1nc(-c2cc(OC)ccc2O)ccc1=O)Cc1ccccc1OC | 630 nM | 1.96 | – | 27.3% |
| CCN(CCCCCCn1nc(-c2cc([N+](=O)[O-])ccc2O)ccc1=O)Cc1ccccc1N(C)C | 460 nM | 0.42 | – | 28.3% |
| CCN(CCCCCCn1nc(-c2ccccc2O)ccc1=O)Cc1ccccc1C | 2540 nM | 2.54 | – | 13.6% |
| O=c1ccc(-c2ccccc2O)nn1CCCCCCN1CCCCC1 | 4560 nM | 3.34 | – | 25.6% |
| CCN(CCCCCCn1nc(-c2cc(Br)ccc2O)ccc1=O)Cc1ccccc1N(C)C | 250 nM | 1.48 | – | 32.2% |
| CCN(CCCCCCn1nc(-c2ccccc2O)ccc1=O)Cc1ccc(F)cc1 | 8580 nM | 2.26 | – | 9.3% |
| CCN(CCCCCCn1nc(-c2cc(C)ccc2O)ccc1=O)Cc1ccccc1N(C)C | 280 nM | 1.26 | – | 23.9% |
| CCN(CCCCCCn1nc(-c2cc(Br)ccc2O)ccc1=O)Cc1cccc(F)c1 | 2570 nM | 0.98 | – | 12.9% |
| CCN(CCCCCCn1nc(-c2ccccc2O)ccc1=O)Cc1cccc(Cl)c1 | 2930 nM | 1.56 | – | 17.6% |
| CCN(CCCCCCn1nc(-c2cc(C)ccc2O)ccc1=O)Cc1cccc(F)c1 | 890 nM | 1.14 | – | 29.2% |
| CCN(CCCCCCn1nc(-c2cc(Br)ccc2O)ccc1=O)Cc1ccccc1OC | 880 nM | 1.53 | – | 34.2% |
